Test results taken from US11878995B2, “Oxysterols and methods of use thereof” (SAGE THERAPEUTICS, INC., priority 2016, dated 2024).

Biological target: T1, GlunN1/GluN2A glutamate receptors (Homo sapiens, UniProt Q05586+Q12879)
T1 construct: expressed in transfected cells
Experiment: Whole-cell patch clamp of mammalian cells (Ionworks Barracuda), NMDA potentiation
Format: cell-based
Conditions: 3 μM compound; HEK293 cells expressing human GRIN1/GRIN2A; co-application with EC20 L-glutamate and 30 μM glycine
Procedure: NMDA potentiation was assessed using either whole cell patch clamp of mammalian cells which expressed NMDA receptors.
Whole-Cell Patch Clamp of Mammalian Cells (Ionworks Barracuda (IWB))
The whole-cell patch-clamp technique was used to investigate the effects of compounds on GlunN1/GluN2A glutamate receptors expressed in mammalian cells.
HEK293 cells were transformed with adenovirus 5 DNA and transfected with cDNA encoding the human GRIN1/GRIN2A genes. Stable transfectants were selected using G418 and Zeocin-resistance genes incorporated into the expression plasmid and selection pressure maintained with G418 and Zeocin in the medium. Cells were cultured in Dulbecco's Modified Eagle Medium/Nutrient Mixture (D-MEM/F-12) supplemented with 10% fetal bovine serum, 100 μg/ml penicillin G sodium, 100 μg/ml streptomycin sulphate, 100 μg/ml Zeocin, 5 μg/ml blasticidin and 500 μg/ml G418.
Test article effects were evaluated in 8-point concentration-response format (4 replicate wells/concentration). […]
• a) Intracellular solution (mM): 50 mM CsCl, 90 mM CsF, 2 mM MgCl2, 5 mM EGTA, 10 mM HEPES. […] Cell suspension will be pipetted into the wells (9 μL per well) of the PPC planar electrode. • b) Whole-cell recording configuration will be established via patch perforation with membrane currents recorded by on-board patch clamp amplifiers. • c) Two recordings (scans) will be performed. […]

T1 sequence (Q12879 23-1464, other chains not shown): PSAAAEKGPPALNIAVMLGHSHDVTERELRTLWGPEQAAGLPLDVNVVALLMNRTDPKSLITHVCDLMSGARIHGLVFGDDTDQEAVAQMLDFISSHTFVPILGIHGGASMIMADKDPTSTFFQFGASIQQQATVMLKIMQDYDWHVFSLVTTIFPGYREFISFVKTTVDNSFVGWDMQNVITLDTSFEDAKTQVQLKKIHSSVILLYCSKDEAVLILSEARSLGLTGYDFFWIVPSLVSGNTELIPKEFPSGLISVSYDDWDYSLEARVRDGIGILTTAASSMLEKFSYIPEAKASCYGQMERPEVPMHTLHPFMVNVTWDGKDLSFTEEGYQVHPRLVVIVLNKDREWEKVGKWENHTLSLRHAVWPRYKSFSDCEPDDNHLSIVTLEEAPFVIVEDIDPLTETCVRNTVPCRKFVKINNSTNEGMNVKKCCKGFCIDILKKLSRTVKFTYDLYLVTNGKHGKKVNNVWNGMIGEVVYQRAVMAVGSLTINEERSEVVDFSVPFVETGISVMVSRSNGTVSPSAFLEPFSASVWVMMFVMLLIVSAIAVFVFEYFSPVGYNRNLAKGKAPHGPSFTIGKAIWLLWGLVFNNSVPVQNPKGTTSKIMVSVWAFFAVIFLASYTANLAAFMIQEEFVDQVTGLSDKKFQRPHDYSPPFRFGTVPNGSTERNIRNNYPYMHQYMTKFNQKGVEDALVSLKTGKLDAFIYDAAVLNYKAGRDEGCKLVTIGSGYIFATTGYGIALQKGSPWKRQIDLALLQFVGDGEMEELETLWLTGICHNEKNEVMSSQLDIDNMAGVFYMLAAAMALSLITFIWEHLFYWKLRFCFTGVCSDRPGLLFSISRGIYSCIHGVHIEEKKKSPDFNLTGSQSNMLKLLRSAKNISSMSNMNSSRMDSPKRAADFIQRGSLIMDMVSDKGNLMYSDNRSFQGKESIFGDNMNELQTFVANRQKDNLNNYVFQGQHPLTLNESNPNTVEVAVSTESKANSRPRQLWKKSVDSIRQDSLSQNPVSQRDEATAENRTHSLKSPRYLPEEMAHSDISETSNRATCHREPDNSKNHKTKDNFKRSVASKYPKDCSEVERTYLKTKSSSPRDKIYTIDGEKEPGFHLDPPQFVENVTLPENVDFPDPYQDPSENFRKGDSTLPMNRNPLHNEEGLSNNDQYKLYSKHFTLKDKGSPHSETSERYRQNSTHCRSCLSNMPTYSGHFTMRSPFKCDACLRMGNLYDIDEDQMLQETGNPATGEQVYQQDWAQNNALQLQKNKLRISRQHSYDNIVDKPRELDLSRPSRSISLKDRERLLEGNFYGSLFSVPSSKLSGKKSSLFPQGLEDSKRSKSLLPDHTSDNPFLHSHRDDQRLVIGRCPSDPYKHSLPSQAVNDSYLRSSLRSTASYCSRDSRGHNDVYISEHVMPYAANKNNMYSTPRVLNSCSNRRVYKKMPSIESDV

## [2H]C(O)(CC[C@@H](C)[C@H]1CC[C@H]2[C@@H]3CC=C4C[C@]([2H])(O)CC[C@]4(C)[C@H]3CC[C@]12C)C(C)C (stereo partly shown) [Compound 7]
  GluN2A PCA IWB Ephys % potentiation at 3 μM: C (“C” indicates potentiation of >150% to 225%)
